One compound from patent publication US12673106B2, “Modulators of nuclear receptor subfamily 4 group A member 1 (NR4A1) and uses thereof” (University of Florida Research Foundation, Incorporated, priority 2020, dated 2026) can be followed below.

Data set [1] in a line: Body weight and T cell development in normal mice. It counts as in vivo, mouse. The settings on record: up to 3 weeks. The text has this:
Thymus (FIG. 12A) and spleen (FIG. 12B) were collected for T cell quantitation by flow cytometry.

Data set [2] concerns the target T1, NR4A1 (Mus musculus, UniProt P12813).
T1 construct: from tissue; host or cells: MC38 tumors from treated tumor-bearing mice (tumor lysates)
The data set is described as follows: NR4A1 degradation in MC38 tumors of treated mice (tumor lysate immunoblotting). Conditions: MC38-tumor bearing mice, 1.8 mg/kg twice weekly for 3 weeks. It is filed as in vivo. The text has this:
Tumor lysates were used for immunoblotting.
(§1) Developing NR4A1-Ps. Due to the diverse function of NR4A1 in different cancer types, both agonistic and antagonistic ligands of NR4A1 are of interest in development (25). […] 4 cytosporone-B-based and 10 celastrol-based NR4A1-Ps using polyethylene glycol (PEG) linkers of various length have already been synthesized (FIG. 3 showing several examples).

Data set [3] addresses T2, NR4A1 (Homo sapiens, UniProt P22736). The data set can be described thus: E3 ligase-mediated NR4A1 degradation in transfected HEK293T cells (immunoblotting). It counts as cell-based. Conditions: HEK293T transfected with NR4A1, with or without CRBN or VHL; 3 μM, 6 hrs. As to the method:
FIG. 4A. Efficiency of NR4A1-Ps in protein degradation using 3 examples of NR4A1-Ps based on CRBN (NR-C91, 92, 93) and 4 based on VHL (NR-V03, 04, 07, 50), with NR-V04 showing the best efficacy in NR4A1 degradation. FIG. 4B. NR4A1 degradation is mediated by targeted E3 ligases. HEK293T cells were transfected with NR4A1, with or without overexpression of CRBN or VHL. 36 hrs after transfection, cells were treated with 3 μM of NR-C91 or NR-V04 for 6 hrs for immunoblotting.
as §1
Background: A western blot detects proteins with antibodies after separation by electrophoresis.

Data set [4] deals with B16F10 melanoma. The data set can be described thus: B16F10 melanoma model in C57BL/6J mice. It is filed as in vivo, mouse. The protocol:
FIG. 10A-10C. […] Tumor growth were monitored via palpation. N=7 mice/group. FIG. 10A and FIG. 10B are the same experiment, but FIG. 10B includes only control vehicle and NR-V04 treated groups in FIG. 10B.
(§2) FIG. 13A-FIG. 13C. Influence of NR-V04 treatment on TI-Tregs from (FIG. 13A) B16F10 melanoma, 1.8 mg/kg twice weekly for 3 weeks; (FIG. 13B) RENCA renal cancer model, 20 mg/kg once a week for 3 weeks; (FIG. 13C-13D) Py8119 breast cancer model, 8 mg/kg once a week for 3 weeks; with FIG. 13C showing the ratios between Treg/Tconv and FIG. 13D showing Treg/CD8+ T cell ratios.

The subject of data set [5] is CD8+ T cells. The data set can be described thus: CD8 T cell activation in B16F10 tumor bearing mice, flow cytometry. It counts as in vivo, mouse. The settings on record: 1.8 mg/kg, one week (two doses). The protocol:
B16F10 tumor bearing mice were treated with control vehicle or 1.8 mg/kg of NR-V04 for one week (two doses). CD8 T cells were analyzed for activation from tumors, spleen and blood. FIG. 15A. CD44+CD62L+(central memory, CM) and FIG. 15B. CD44+CD62L− (effector memory, EM) of CD8+ T cells were quantitated using flow cytometry.
We also determined the impact of NR-V04 on exhaustion and activation of CD8^+ T cells.

In data set [6] the target is T2, NR4A1. The data set is described as follows: Degradation of endogenous NR4A1 in T47D breast cancer cells. It counts as cell-based. Also on record: degrade endogenous NR4A1 in T47D breast cancer cells; endogenous in cells; host or cells: T47D breast cancer cells. Conditions: 1 μM.
For data set [7], the system named is Py8119 cells. The data set can be described thus: Py8119 breast cancer model in C57/BL6 mice. It is filed as in vivo, mouse. The protocol: FIG. 7A-FIG. 7D. Py8119 cells were injected into #4 mammary fatpad of 8-week female C57/BL6 mice, following with vehicle or NR-V04 treatment i.p. at 8 mg/kg weekly, starting at day 15 after tumor cell injection. Body weight (FIG. 7A), tumor growth (data not shown), and immune cell profiling by flow cytometry from spleen, tumor, and blood were shown (FIG. 7B-7D). CD45+CD3+CD8+ T cells (FIG. 7B), CD45+CD3+CD4+T (FIG. 7C), and ratios of CD4+Foxp3+Tregs to total T cells (T), to total CD4 T cells (CD4), to total CD4conv (non Treg CD4 T cells), or to CD8 T cells (FIG. 7D) were shown. * P<0.05; ** P<0.01.
as §2
Syngeneic models for antitumor activities. Syngeneic tumor models include breast cancer models: 1) E0771 as luminal breast cancer (C57BL/6 background) (36-38), 2) Py8119 (C57BL/6) (37, 39, 40) and 3) 4T1 (Balb/C) (41, 42) as triple negative breast cancer, and 4) MT2 as HER2-positive breast cancer (FVB/N) (43, 44), all of which develop metastasis upon orthotopic tumor injections; 5) MC-38 colon cancer model; 6) Renca renal carcinoma model; 7) B16 melanoma models. MC-38 is known to be responsive to ICIs and Renca is known to respond of Treg suppression in their tumor growth. B16 is only partially responsive to ICI treatment when anti-CTLA-4 and anti-PD-1 are combined. Careful titration of the minimal cell numbers provides consistent tumor growth and/or metastasis. For testing the efficacy of NR-V04 or other leads, tumor-bearing mice will be treated with either non-targeting NR-V04-NT or NR-V04, or other leads, starting 14 days after tumor cell injection when 3-5 mm in diameter tumor growth is typically seen in all models. The dose and frequency will be used based on the data from SA1.2. Based on work on BCL-XL PROTAC (22), weekly injection of the leads should be sufficient to maintain effective doses in various tissues.

For data set [8], the system named is human T cells from PBMC. The data set is described as follows: T cells from human PBMC of cancer patients, CD3/CD28 co-stimulated, flow cytometry. It counts as cell-based. Conditions: 500 nM or 1 uM, two days. As to the method:
T cells were purified from human PBMC from cancer patients and co-stimulated with anti-CD3/CD28 dynabeads for 3 days, following with DMSO, 500 nM or 1 uM of NR-V04 treatment for two days. FIG. 14A-14B, different sub-population of T cell numbers were quantitated via flow cytometry (FIG. 14A), with Treg panel separated (FIG. 14B).
In agreement with the in vivo models, we also activated all human T cells from PBMC of cancer patients, following with the treatment of various concentrations of NR-V04.
In general terms: In flow cytometry, cells or beads pass a laser one at a time.

T2 sequence (P22736 whole entry, species assumed): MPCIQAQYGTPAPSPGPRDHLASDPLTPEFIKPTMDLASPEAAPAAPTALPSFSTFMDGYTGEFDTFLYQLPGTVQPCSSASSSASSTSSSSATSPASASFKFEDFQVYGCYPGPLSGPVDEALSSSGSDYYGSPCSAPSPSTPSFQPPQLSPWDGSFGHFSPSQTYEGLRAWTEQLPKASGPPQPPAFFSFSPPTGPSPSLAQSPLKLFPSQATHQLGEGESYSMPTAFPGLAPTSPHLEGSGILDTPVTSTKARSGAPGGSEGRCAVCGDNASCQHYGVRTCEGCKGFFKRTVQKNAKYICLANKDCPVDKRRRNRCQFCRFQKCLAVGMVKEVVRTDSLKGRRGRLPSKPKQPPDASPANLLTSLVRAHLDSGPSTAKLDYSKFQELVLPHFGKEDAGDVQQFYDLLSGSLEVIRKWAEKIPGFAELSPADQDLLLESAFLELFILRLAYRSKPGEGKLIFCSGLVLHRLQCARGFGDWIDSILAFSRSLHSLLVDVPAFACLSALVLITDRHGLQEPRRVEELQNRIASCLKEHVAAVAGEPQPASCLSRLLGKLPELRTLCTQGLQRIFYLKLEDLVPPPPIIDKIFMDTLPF
T1 sequence (P12813 whole entry): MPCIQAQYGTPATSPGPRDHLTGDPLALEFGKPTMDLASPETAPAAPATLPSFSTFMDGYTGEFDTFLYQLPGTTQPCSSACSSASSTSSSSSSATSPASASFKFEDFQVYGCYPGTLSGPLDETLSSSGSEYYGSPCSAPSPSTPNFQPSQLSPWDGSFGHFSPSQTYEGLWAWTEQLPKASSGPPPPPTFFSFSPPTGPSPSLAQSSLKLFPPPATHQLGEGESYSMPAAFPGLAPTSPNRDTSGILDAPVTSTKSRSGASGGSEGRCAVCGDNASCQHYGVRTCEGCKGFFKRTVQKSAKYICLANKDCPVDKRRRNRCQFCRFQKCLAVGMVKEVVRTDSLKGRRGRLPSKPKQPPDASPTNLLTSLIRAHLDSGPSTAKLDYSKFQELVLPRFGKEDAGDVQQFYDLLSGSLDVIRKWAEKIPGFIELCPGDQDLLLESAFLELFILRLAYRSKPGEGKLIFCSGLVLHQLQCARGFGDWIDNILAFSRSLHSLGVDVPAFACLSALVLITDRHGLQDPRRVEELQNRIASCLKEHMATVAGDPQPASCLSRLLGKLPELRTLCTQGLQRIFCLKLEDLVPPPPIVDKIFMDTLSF

For the compound `CC1=C(O)C(=O)C=C2C1=CC=C1[C@@]2(C)CC[C@@]2(C)[C@@H]3C[C@](C)(C(=O)NCCOCCOCCOCCOCC(=O)N[C@H](C(=O)N4C[C@H](O)C[C@H]4C(=O)N[C@@H](C)c4ccc(-c5scnc5C)cc4)C(C)(C)C)CC[C@]3(C)CC[C@]12C` [NR-V04], in data set [1], the body weight result is on record as “did not influence the body weight”; the “development of T cells in thymus and spleen” value is recorded as “did not change the normal development of T cells”. Further, the “degradation of NR4A1 within tumors” value in data set [2] was “efficient degradation of target protein NR4A1”. Also, the “NR4A1 degradation with overexpression of the corresponding E3 ligase” value in data set [3] is “overexpression of their corresponding E3 ligases facilitated NR4A1-P-mediated degradation of NR4A1”. The TI-Tregs result in data set [4] (B16F10, 1.8 mg/kg twice weekly for 3 weeks) was “decreased TI-Tregs”. Also, the tumor growth entry in data set [4] (B16F10 in C57BL/6J male mice, 1.8 mg/kg NR-V04 or 0.75 mg/kg celastrol twice weekly for 3 weeks) is listed as “significantly reduces tumor growth”. For the same compound, in data set [5], the “central memory CD8+ T cells (CD44+CD62L+)” value was “no significant change” and the “effector memory population of CD8+ T cells (CD44+CD62L−)” value is recorded as “significant increase”. The NR4A1 degradation result in data set [6] is listed as “best efficiency in inducing NR4A1 degradation”. Moreover, in data set [7] (Py8119, 8 mg/kg i.p. weekly), the “overall CD4+ and CD8+ T cells” value is “without influencing overall CD4+ and CD8+ T cells”; the “tumor-infiltrating Tregs versus effector T cell ratio” value is “On-target decrease”. In data set [7] (Py8119, 8 mg/kg i.p. weekly from day 15), the tumor growth entry is on record as “Tumor growth difference was not observed”. Further, the body weight result in data set [7] (Py8119, 8 mg/kg i.p. weekly, day 25 or 30) was “no difference in body weight”. In data set [8], the “T cell populations other than Tregs” value is “no impact on various T cell populations” and the Tregs entry is listed as “selectively elimination of Tregs”.
